According to patent EP4772530A1, “PEPTIDE TARGETING SOMATOSTATIN RECEPTOR, DRUG CONJUGATE AND USE THEREOF” (Mainline Biosciences (Shanghai) Co., Ltd., priority 2023, dated 2025):
Several values for one entry are separate records, joined by “and”; a condition that tells them apart may be missing. Equal entries are not always repeated. Entries after “also recorded” stand apart in the source; their conditions may differ.

System: Human multiple myeloma MM.1S cells
Experiment: EX3.3 in vivo pharmacodynamics, MM.1S subcutaneous xenograft model
Design: species or system CB17 SCID mice
Conditions: for Tumor Volume (Mean ± SEM): IV, Twice Weekly
Method: Human multiple myeloma MM.1S cells were suspended and cultured in vitro in 1640 medium containing 10% fetal bovine serum, 100 U/mL penicillin, and 100 µg/mL streptomycin in a 5% CO2 incubator at 37°C. The suspended cells were collected by centrifugation twice a week and adherent cells were digested with trypsin-EDTA to prepare a cell suspension for subculture. When the cell saturation was 80%-90% and the cell number reached the requirement, the cells were collected, counted, and inoculated.
CB17 SCID mice, female, 6-8 weeks old, weighing 18-22 g, provided by Zhejiang Vital River Laboratory Animal Technology Co., Ltd.
Each mouse was subcutaneously injected with 100 µL of PBS containing 5×10^6 MM.1S cells + 100 µL of Matrigel (final volume: 200 µL) at the axilla of the right forelimb. At 20 days after injection, when the average tumor volume reached 109 mm^3, mice were grouped for dosing (vehicle control,Ixazomib Citrate, and Example 1 treatment groups, with 6 animals per group). The Ixazomib Citrate group was orally administered by gavage (4 mg/kg) twice a week; the vehicle control group (5%DMSO + 95% normal saline) and the Example 1 treatment group (1.75 mg/kg) were slowly intravenously injected for about 30 seconds each time, twice a week.
The experimental indicators were used to investigate whether tumor growth was inhibited, delayed, or cured. The tumor diameter was measured twice a week using a vernier caliper. The tumor volume was calculated as follows: V = 0.5a×b^2, where a and b were the long and short diameters of the tumor, respectively.
The anti-tumor efficacy of the drug was evaluated based on TGI (%) or relative tumor proliferation rate T/C (%). TGI (%) was the tumor growth inhibition rate. TGI (%) was calculated as follows: TGI (%)=[(1 -(mean tumor volume at the end of dosing in a certain treatment group - mean tumor volume at the start of dosing in the treatment group))/ (mean tumor volume at the end of dosing in the vehicle control group - mean tumor volume at the start of dosing in the vehicle control group)]× 100%.
T/C (%) was calculated as follows:T/C (%)= TRTV/ CRTV× 100 %. Based on the results of tumor measurement, the relative tumor volume (RTV) was calculated as follows: RTV = Vt/V0, where V0 was the mean tumor volume measured at the time of grouping (i.e. d0), and Vt was the mean tumor volume at a certain measurement. Data on the same day were taken for TRTV and CRTV.
Tumor weights were measured at the end of the experiment and T/Cweight was calculated, where Tweight and Cweight were tumor weights in the treatment and vehicle control groups, respectively.
Statistical analysis, including the mean and standard error (SEM) of tumor volume at each time point in each group (see Table 5-1 in Section 5.2 for specific data), was performed to evaluate differences between groups based on data from the treatment group on Day 18 post-dose at the end of the experiment. A t-test was used for comparison between two groups, and one-way ANOVA was used for comparison among three or more groups. If there was a significant difference in F value, the Games-Howell method was used for testing; if there was no significant difference in F value, the Dunnet (2-sided) method was used for analysis. All data were analyzed using SPSS 17.0.

[1] = 18 days after the start of dosing, Example 1 1.75 mg/kg IV twice a week

Question: Which results are given for `CC[C@H](C)[C@@H]([C@@H](CC(=O)N1CCC[C@H]1[C@H](OC)[C@@H](C)C(=O)N[C@H](C)[C@@H](O)c1ccccc1)OC)N(C)C(=O)[C@@H](NC(=O)[C@H](C(C)C)N(C)C(=O)OCc1ccc(NC(=O)[C@H](CCCNC(N)=O)NC(=O)[C@@H](NC(=O)CCCCCN2C(=O)CC(SC[C@H](NC(C)=O)C(=O)NCCOCCOCC(=O)N[C@@H](CCCNC(=N)N)C(=O)N[C@@H](CCCNC(=N)N)C(=O)N[C@@H](CC(C)C)C(=O)N[C@@H](Cc3ccccc3)C(=O)N[C@H]3CSSC[C@@H](C(=O)N[C@H](C(=O)N[C@@H](Cc4c[nH]c5ccccc45)C(=O)N[C@@H](CCCNC(=N)N)C(=O)N[C@@H](CC(=O)O)C(N)=O)[C@@H](C)O)NC(=O)[C@H]([C@@H](C)O)NC(=O)[C@H](CCCCN)NC(=O)[C@@H](Cc4c[nH]c5ccccc45)NC(=O)[C@H](Cc4ccc(O)cc4)NC3=O)C2=O)C(C)C)cc1)C(C)C` (stereo partly drawn) [Example 1, Cys(MC-Val-Cit-PABC-MMAE)-AEEA-Arg-Arg-Leu-Phe-[Cys-Tyr-D-Trp-Lys-Thr-Cys]-Thr-Trp-Arg-Asp-NH2]?
Answer: T/C [1]: 0.94%; TGI [1]: 103.59%; tumor inhibition compared to the vehicle control group (18 days after the start of dosing, Example 1 1.75 mg/kg, p= 0.010, 1.75 mg/kg): significant tumor inhibition; also recorded: significant anti-tumor effect; Tumor Volume (Mean ± SEM) (Day 4, Example 1 1.75 mg/kg): 144 ± 14 mm3; Tumor Volume (Mean ± SEM) (Day 7, Example 1 1.75 mg/kg): 124 ± 13 mm3; Tumor Volume (Mean ± SEM) (Day 11, Example 1 1.75 mg/kg): 87 ± 11 mm3; Tumor Volume (Mean ± SEM) (Day 14, Example 1 1.75 mg/kg): 50 ± 8 mm3; Tumor Volume (Mean ± SEM) (Day 18, Example 1 1.75 mg/kg, 1.75 mg/kg): 23 mm3 and 23 ± 5 mm3; Tumor Volume (Mean ± SEM) (Day 21, Example 1 1.75 mg/kg): 12 ± 5 mm3; Tumor Volume (Mean ± SEM) (Day 25, Example 1 1.75 mg/kg): 0 ± 0 mm3; Tumor Volume (Mean ± SEM) (Day 28, Example 1 1.75 mg/kg): 0 ± 0 mm3; complete response rate (Example 1 1.75 mg/kg): 100%; complete response (Example 1 1.75 mg/kg, 6 animals in the group): all achieved a complete response
